Data on one compound can be found in PMC10313368 (The Journal of Clinical Investigation, 2023).

For one data set, the system named is OIR mice. The data set can be described thus: Retinal NV in the oxygen-induced retinopathy (OIR) mouse model. The format is in vivo. More on the design: Figure 14 C (retinal NV, OIR) / Figure 14 E (retinal NV, OIR): unit not given here. The source says:
To characterize the contribution of these other HIF-regulated angiogenic factors to the promotion of ischemia-driven retinal NV in vivo, we used the classic oxygen-induced retinopathy (OIR) model characterized by Smith and colleagues ([35]). In stage 1 of this model, P7 pups are exposed to hyperoxia (75% O2) for 5 consecutive days (P7–P12), resulting in obliteration of the posterior retinal vasculature. In stage 2, pups (at P12) are returned to room air (21% O2). The resulting relative ischemia promotes the expression of angiogenic mediators that stimulate the development of retinal NV (peaking at P17; Figure 2A). […]
Animal studies. Eight-week-old pathogen-free female C57BL/6 mice were obtained from The Jackson Laboratory (JAX). Timed pregnant C57BL/6 mice were obtained from Charles River Laboratories. Mice heterozygous for HIF-1α have been previously described (2). Mice heterozygous for HIF-2α (strain number: 003266; common name: EPAS1 KO) were purchased […]
OIR mouse model. OIR experiments were performed as previously described (1, 3). Briefly, C57BL/6 mice were placed in 75% O2 on P7. On P12, the mice were returned to room air and were […]
(or vehicle) by intravitreal injection. Mice with body weight less than 6 g at P17 were excluded […]
from analysis. Data were collected from both males and females and the results were combined since there was no apparent difference between sexes. Representative images for selected time points from a minimum of three independent experiments are shown. Data from 3-8 pups were obtained at each time point. […]
Intraperitoneal (IP) injections. […]
intraperitoneally using an insulin syringe in OIR pups. […]
the peritoneal cavity of neonatal C57BL/6 mice and STZ mice at indicated times, and the retinal vasculature and lysates for WB and qPCR were assessed at P17.
Intraocular injections. Intravitreal injections were performed with a PLI-100A Pico-liter Microinjector (Warner Instruments, Harvard Bioscience) using pulled-glass micropipettes. Each micropipette was calibrated to deliver a 1 μl volume on depression of a foot switch. The mice were anesthetized with a ketamine (100 mg/kg) and xylazine (5mg/kg) mixture, and under a dissecting microscope, the sharpened tip of the micropipette was passed through the sclera just posterior to the limbus into the vitreous cavity and the foot switch was depressed, which caused fluid to […]
penetrate into the vitreous space. […]
mice for vascular permeability test, retinal vasculature, and lysates for WB and qPCR analysis.
Immunoﬂuorescence assays. Details for antibodies are provided in Supplemental Table 1.
Immunofluorescence assays in retinal organoids and mouse retinal tissues were performed as previously described (4). Briefly, mice were sacrificed using CO2 asphyxiation, and the eyes were enucleated and fixed with a solution of 4% paraformaldehyde in PBS (Thermo Scientific™) for two hours at RT, followed by washing with PBS for 10 minutes in a shaker. Retinas were isolated and incubated in 0.5% BSA solution overnight at 4 °C. Retinas were then washed with PBS 3 times for 10 minutes in the shaker and stained with isolectin B4 (Invitrogen; 1:200 dilution in PBS) overnight at 4 °C. After washing 3 times for 10 minutes each in the shaker, the retinas were mounted. Images were captured with Zeiss fluorescent microscope. Eight fields per eye (2 fields per petal) including area of neovascularization were selected and fluorescence intensity was measured by ImageJ software. […]
The eyes were enucleated and immediately immersed in 4% (wt/vol) paraformaldehyde for 2 hours at room temperature. Retinas were isolated and wholemounts prepared on clean glass slides and mounted vitreous side up under coverslips with antifade medium (Vectashield; Vector Laboratories, Burlingame, CA). Images were captured by Zeiss fluorescent microscope or confocal microscopy and fluorescence was quantified by the image J software (National Institutes

Data set [1] concerns differentially expressed genes (DEGs) in OIR mice. The data set is described as follows: Bulk RNA-Seq of neurosensory retina of OIR mice. Format: in vivo, mouse. From the text:
Bulk RNAseq. P17 mouse pups from non-OIR (control), OIR injected with DMSO (vehicle) at P12 […]
enucleated, and their retinas separated from the RPE/choroid. Total RNA was isolated using miRNeasy mini kit (QIAGEN). RNA was quantified using Nanodrop (ND-1000 spectrophotometer; Thermo Scientific). The RNA samples were sequenced by Novogene […]
Raw data (fastq files), data quality control, and genome alignment were generated by Novogene company. DESeq2 (6) was used for differentially expressed genes (DEG) analysis. Genes with adjusted P < 0.05 and log2 fold change > 1 were identified as DEGs. Normalized counts were used to produce clustering heatmaps and “complete” was the default method in the clustering analysis.
Gene Ontology (GO) analysis (biological process) was done using DAVID Bioinformatics Resources (7, 8). FDR < 0.05 was used as the threshold for enriched biological process. […]

The next data set has as its system adult mice. Particulars: i.p. 5 consecutive days, doses up to 80 mg/kg; cited from earlier work.
The next data set deals with HIF-2α (Homo sapiens, UniProt Q99814). The data set can be described thus: Immunoblot of HIF-2α accumulation in MIO-M1 cells cultured in hypoxia. Format: cell-based. More on the design: endogenous in cells; host or cells: MIO-M1. Particulars: MIO-M1, 1 μM 32-134D, 1% O2 4 hours. The procedure: MIO-M1, HUVECs, and ARPE19 cells were cultured in DMEM with 10% (vol/vol) FBS (Quality Biological) and 1% penicillin/streptomycin (Cellgro). A hypoxic chamber (Coy Laboratory Product Inc.; Two Glove Model) with 5% CO2, 94% N2, and 1% O2 gas concentration at 37°C was used to culture hypoxic cells. The control cells were cultured in an incubator maintained at 37°C, with 21% O2 and 5% CO2. […] Aflibercept was obtained from the Johns Hopkins University Pharmacy.
Chain of HIF-2α (Q99814 whole entry): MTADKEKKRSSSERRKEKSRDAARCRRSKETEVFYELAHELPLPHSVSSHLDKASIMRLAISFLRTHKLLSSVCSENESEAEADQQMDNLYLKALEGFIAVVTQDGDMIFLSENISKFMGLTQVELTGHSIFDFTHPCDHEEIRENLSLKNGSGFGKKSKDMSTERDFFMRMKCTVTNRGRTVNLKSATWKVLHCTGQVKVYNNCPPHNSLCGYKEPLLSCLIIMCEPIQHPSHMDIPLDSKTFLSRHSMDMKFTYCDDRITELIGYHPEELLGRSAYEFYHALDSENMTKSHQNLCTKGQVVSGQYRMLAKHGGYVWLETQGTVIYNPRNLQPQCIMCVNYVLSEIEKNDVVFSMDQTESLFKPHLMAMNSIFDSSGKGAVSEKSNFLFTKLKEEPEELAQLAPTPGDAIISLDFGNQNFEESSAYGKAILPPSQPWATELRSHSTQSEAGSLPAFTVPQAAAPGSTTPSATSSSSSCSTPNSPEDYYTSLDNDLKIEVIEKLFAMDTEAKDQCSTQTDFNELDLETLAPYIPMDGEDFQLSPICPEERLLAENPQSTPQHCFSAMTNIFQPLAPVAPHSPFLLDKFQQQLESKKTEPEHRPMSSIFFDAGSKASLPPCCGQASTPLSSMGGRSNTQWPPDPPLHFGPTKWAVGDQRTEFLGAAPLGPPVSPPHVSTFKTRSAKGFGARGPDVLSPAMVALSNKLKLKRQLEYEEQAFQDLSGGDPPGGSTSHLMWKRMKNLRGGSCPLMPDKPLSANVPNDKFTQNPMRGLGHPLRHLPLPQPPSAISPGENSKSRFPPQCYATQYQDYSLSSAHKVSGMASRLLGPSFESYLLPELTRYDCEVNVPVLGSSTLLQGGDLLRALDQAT
Immunoblot assays. Cells, neurosensory retina, and D120 retinal organoid lysates were subjected
to 4–15% gradient SDS/PAGE (Invitrogen). Immunoblot (Western blot or WB) assays were
performed as previously described (1). […]
(Immunoblotting shows a protein as a band on a membrane.)

The mark [2] stands for this setting: OIR mice, Figure 10E, individual values.
Where [3] appears, read: OIR mice P17, single intraocular 32-134D 70 ng/μL at P12.

Values joined by “and” are separate entries in the source; they are usually repeats but may differ in a detail not shown here. Equal values may be shown once.

Take `Brc1ccc2c(-c3csc(-c4c[nH]c5c(Br)cccc45)n3)c[nH]c2c1` [32-134D, 4-(6-bromo-1H-indol-3-yl)-2-(7-bromo-1H-indol-3-yl)thiazole]: the “retinal NV in OIR mice (in words)” value in the data set with OIR mice (5 consecutive days of i.p. injections 20 mg/kg 32-134D) is given as “marked reduction in retinal NV”. For the same compound, the “Figure 14 C (retinal NV, OIR)” value with OIR mice (14ng intraocular, individual values) is 3.954 and 13.1715 and 11.5498 and 7.756 and 10.0719 and 10.2983. Further, the “Figure 14 C (retinal NV, OIR)” value with OIR mice (70ng intraocular, individual values) was 3.009 and 6.226 and 3.283 and 2.049 and 6.5224 and 7.021. Besides, in the data set on OIR mice (Figure 14E, 280ng intraocular, individual values), the “Figure 14 E (retinal NV, OIR)” value is 3.652 and 2.167 and 0.762 and 1.534 and 2.454 and 1.3869. Moreover, in the data set on OIR mice (setting [2]), the “avascular area (%)” value was 39.7919% and 29.3948% and 27.2246% and 38.1203% and 35.7742% and 31.6081% and 33.2821% and 34.1%; the “neovascular area (%)” value was 6.529% and 6.16% and 5.906% and 5.171% and 3.4% and 5.22% and 4.584% and 1.45%. For the same compound, the “inhibition of retinal NV at P17” value in the data set with OIR mice (OIR mice, single intraocular injection 32-134D 14 ng at P12) is about 75%. In addition, the “inhibition of retinal NV at P17” value with OIR mice (OIR mice, single intraocular injection 32-134D 280 ng at P12) is recorded as “approximately 85%”. Besides, in data set [1] (setting [3]), the “reduction in downregulated DEGs” value turned out to be 93% and the “reduction in upregulated DEGs” value came to 71%. In data set [1] (OIR mice P17, single intraocular 32-134D 70 ng/μL at P12, 250 in untreated OIR), the “upregulated DEGs compared with non-OIR (control) mice” value worked out at 73. Besides, the “downregulated DEGs compared with non-OIR (control) mice” value in data set [1] (OIR mice P17, single intraocular 32-134D 70 ng/μL at P12, 768 in untreated OIR) was determined as 52. Besides, in data set [1] (OIR mice, 32-134D intraocular), the “top 37 upregulated DEGs of 4 biological functions (inflammation, angiogenesis, hypoxia, vasculogenesis)” value is on record as “normalization”. Also, the “systemic tolerability (appearance, behavior, body weight, hemoglobin, hematocrit)” value in the data set on adult mice is “well tolerated”. Further, the “HIF-2α protein accumulation in response to hypoxia” value on HIF-2α is on record as “decreased”.
